Assay results reported in patent US9567318B2, “Substituted pyrimidine compounds and uses thereof” (Memorial Sloan-Kettering Cancer Center, priority 2009, dated 2017).

Experiments:
[1] = test system: Kasumi-1 acute myeloid leukemia cells; test: Growth Inhibition Assay (Alamar blue), Kasumi-1; format: cell-based, human; details: Kasumi-1 cells
Description: (§1) The IC50 values listed for some of these compounds illustrate the antiproliferative effects of the subject compounds and were obtained using the Growth Inhibition assays described herein.
(§2) Growth Inhibition Assay. Antiproliferative effects of inhibitors were evaluated using the dye Alamar blue. This reagent offers a rapid objective measure of cell viability in cell culture, and it uses the indicator dye resazurin to measure the metabolic capacity of cells, an indicator of cell viability. Briefly, cells were plated on Costar 96-well plates. For attached cells (such as SKBr3, MDA-MB-468, LNCaP, MRCS), 8,000 cells/well were used. For suspension cells (such as MOLM-13, Kasumi-1, OCI-Ly7, PBL), 20,000 cells/well were plated. Cells were allowed to incubate for 24 h at 37° C. before drug treatment. Drugs were added in triplicates at the indicated concentrations, and the plate was incubated for 72 h. Alamar Blue (440 μM) was added, and the plate read 6 h later using the Analyst GT (Fluorescence intensity mode, excitation 530 nm, emission 580 nm, with 560=dichroic mirror). Results were analyzed using the Softmax Pro software. The percentage cell growth inhibition was calculated by comparing fluorescence readings obtained from treated versus control cells, accounting for initial cell population (time zero).

[2] = test system: SKBr3 HER2+ breast cancer cells; test: Growth Inhibition Assay (Alamar blue), SKBr3; format: cell-based, human; details: Homo sapiens, SK-BR-3, 72 h
Description: as §1, §2

Structure (SMILES)	IC50 ([1]; Homo sapiens, Kasumi 1, 72 h) [µM]	IC50 [2] [µM]	IC50 ([1]; 72 h) [µM]
COc1nc(N2CCOCC2)nc(OC)c1Sc1cccc(N)c1 [PDP2, 3-(4,6-dimethoxy-2-morpholinopyrimidin-5-ylthio)aniline]	79.7	> 100	–
C=CC(=O)Nc1cccc(Sc2c(OC)nc(N3CCOCC3)nc2OC)c1 [PDP3, N-(3-(4,6-dimethoxy-2-morpholinopyrimidin-5-ylthio)phenyl)acrylamide]	11.4	16.5	–
CCC(=O)Nc1cccc(Sc2c(OC)nc(N3CCOCC3)nc2OC)c1 [PDP4, N-(3-(4,6-dimethoxy-2-morpholinopyrimidin-5-ylthio)phenyl)propionamide]	> 100	> 100	–
C=C(C)C(=O)Nc1cccc(Sc2c(OC)nc(N3CCOCC3)nc2OC)c1 [PDP5, N-(3-(4,6-dimethoxy-2-morpholinopyrimidin-5-ylthio)phenyl)methacrylamide]	–	18.1	–
COc1nc(N2CCOCC2)nc(OC)c1Sc1cccc(NC(=O)C2CC2)c1 [PDP6, N-(3-(4,6-dimethoxy-2-morpholinopyrimidin-5-ylthio)phenyl)cyclopropanecarboxamide]	–	9.9	–
COc1nc(F)nc(OC)c1Sc1nccc(NC(C)=O)n1 [YK62, N-(2-(2-fluoro-4,6-dimethoxypyrimidin-5-ylthio)pyrimidin-4-yl)acetamide]	> 100	–	–
COc1nc(N2CCN(C)CC2)nc(OC)c1Sc1nccc(NC(C)=O)n1 [YK63, N-(2-(4,6-dimethoxy-2-(4-methylpiperazin-1-yl)pyrimidin-5-ylthio)pyrimidin-4-yl)acetamide]	11.2	–	–
COc1nc(N2CCCCC2)nc(OC)c1Sc1nccc(NC(C)=O)n1 [YK64, N-(2-(4,6-dimethoxy-2-(piperidin-1-yl)pyrimidin-5-ylthio)pyrimidin-4-yl)acetamide]	4	–	–
COc1nc(N2CCOCC2)nc(OC)c1Sc1nccc(NC(C)=O)n1 [YK65, N-(2-(4,6-dimethoxy-2-morpholinopyrimidin-5-ylthio)pyrimidin-4-yl)acetamide]	15.7	–	–
COc1nc(N2CCCC2)nc(OC)c1Sc1nccc(NC(C)=O)n1 [YK66, N-(2-(4,6-dimethoxy-2-(pyrrolidin-1-yl)pyrimidin-5-ylthio)pyrimidin-4-yl)acetamide]	48.3	–	–
COc1nc(N2CCN(C)CC2)nc(OC)c1Sc1nccc(N)n1 [YK67, 2-(4,6-dimethoxy-2-(4-methylpiperazin-1-yl)pyrimidin-5-ylthio)pyrimidin-4-amine]	93.5	–	–
COc1nc(N2CCCCC2)nc(OC)c1Sc1nccc(N)n1 [YK68, 2-(4,6-dimethoxy-2-(piperidin-1-yl)pyrimidin-5-ylthio)pyrimidin-4-amine]	14.7	–	–
COc1nc(N2CCOCC2)nc(OC)c1Sc1nccc(N)n1 [YK69, 2-(4,6-dimethoxy-2-morpholinopyrimidin-5-ylthio)pyrimidin-4-amine]	54.2	–	–
COc1nc(N2CCCC2)nc(OC)c1Sc1nccc(N)n1 [YK70, 2-(4,6-dimethoxy-2-(pyrrolidin-1-yl)pyrimidin-5-ylthio)pyrimidin-4-amine]	25.2	–	–
C=CC(=O)Nc1ccnc(Sc2c(OC)nc(N3CCN(C)CC3)nc2OC)n1 [YK71, N-(2-(4,6-dimethoxy-2-(4-methylpiperazin-1-yl)pyrimidin-5-ylthio)pyrimidin-4-yl)acrylamide]	0.8	1.2	–
C=CC(=O)Nc1ccnc(Sc2c(OC)nc(N3CCCCC3)nc2OC)n1 [YK72, N-(2-(4,6-dimethoxy-2-(piperidin-1-yl)pyrimidin-5-ylthio)pyrimidin-4-yl)acrylamide]	2	–	–
C=CC(=O)Nc1ccnc(Sc2c(OC)nc(N3CCOCC3)nc2OC)n1 [YK73, N-(2-(4,6-dimethoxy-2-morpholinopyrimidin-5-ylthio)pyrimidin-4-yl)acrylamide]	1.9	11.6	–
C=CC(=O)Nc1ccnc(Sc2c(OC)nc(N3CCCC3)nc2OC)n1 [YK74, N-(2-(4,6-dimethoxy-2-(pyrrolidin-1-yl)pyrimidin-5-ylthio)pyrimidin-4-yl)acrylamide]	42.2	4.3	–
COc1nc(N2CC[N+](C)([O-])CC2)nc(OC)c1Sc1nccc(NC(C)=O)n1 [YK75, 4-(5-(4-acetamidopyrimidin-2-ylthio)-4,6-dimethoxypyrimidin-2-yl)-1-methylpiperazine 1-oxide]	–	> 100	–

Results, then the compound that gave them:

IC50 ([1]; Homo sapiens, Kasumi 1, 72 h) [µM]	IC50 [2] [µM]	IC50 ([1]; 72 h) [µM]	Structure (SMILES)
22.5	2.4	–	C=CC(=O)Nc1ccnc(Sc2c(OC)nc(OC)nc2OC)n1 [YK76, N-(2-(2,4,6-trimethoxypyrimidin-5-ylthio)pyrimidin-4-yl)acrylamide]
62.3	79.2	–	CCC(=O)Nc1ccnc(Sc2c(OC)nc(OC)nc2OC)n1 [YK77, N-(2-(2,4,6-trimethoxypyrimidin-5-ylthio)pyrimidin-4-yl)propionamide]
> 100	31.1	–	C=CC(=O)Nc1ccnc(Sc2c(OC)nc(N3CC[N+](C)([O-])CC3)nc2OC)n1 [YK80, 4-(5-(4-acrylamidopyrimidin-2-ylthio)-4,6-dimethoxypyrimidin-2-yl)-1-methylpiperazine 1-oxide]
4.8	1.8	–	C=CC(=O)Nc1ccnc(Sc2c(C)nc(N3CCN(C)CC3)nc2C)n1 [YK85, N-(2-(4,6-dimethyl-2-(4-methylpiperazin-1-yl)pyrimidin-5-ylthio)pyrimidin-4-yl)acrylamide]
26.2	44.4	–	CCC(=O)Nc1ccnc(Sc2c(C)nc(N3CCN(C)CC3)nc2C)n1 [YK86, N-(2-(4,6-dimethyl-2-(4-methylpiperazin-1-yl)pyrimidin-5-ylthio)pyrimidin-4-yl)propionamide]
16	–	–	C/C=C/C(=O)Nc1ccnc(Sc2c(C)nc(N3CCN(C)CC3)nc2C)n1 [YK87, (E)-N-(2-(4,6-dimethyl-2-(4-methylpiperazin-1-yl)pyrimidin-5-ylthio)pyrimidin-4-yl)but-2-enamide]
9.5	–	–	C=C(C)C(=O)Nc1ccnc(Sc2c(OC)nc(N3CCCC3)nc2OC)n1 [YK108, N-(2-(4,6-dimethoxy-2-(pyrrolidin-1-yl)pyrimidin-5-ylthio)pyrimidin-4-yl)methacrylamide]
–	18.3	–	CCC(=O)Nc1cccc(Sc2c(OC)nc(N3CCN(C)CC3)nc2OC)c1 [YK130, N-(3-(4,6-dimethoxy-2-(4-methylpiperazin-1-yl)pyrimidin-5-ylthio)phenyl)propionamide]
–	38.9	–	CCC(=O)Nc1cccc(Sc2c(OC)nc(N3CCN(CCOCCOCCOCCO)CC3)nc2OC)c1 [YK141, N-(3-(2-(4-(2-(2-(2-(2-hydroxyethoxy)ethoxy)ethoxy)ethyl)piperazin-1-yl)-4,6-dimethoxypyrimidin-5-ylthio)phenyl)propionamide]
–	47.9	–	CCC(=O)Nc1cccc(Sc2c(OC)nc(N3CCN(CCOCCOCCOCCOC(=O)CCCCC4SCC5NC(=O)NC54)CC3)nc2OC)c1 (stereo not drawn) [YK142, 2-(2-(2-(2-(4-(4,6-dimethoxy-5-(3-propionamidophenylthio)pyrimidin-2-yl)piperazin-1-yl)ethoxy)ethoxy)ethoxy)ethyl 5-(2-oxohexahydro-1H-thieno[3,4-d]imidazol-4-yl)pentanoate]
8.8	–	9	CCC(=O)Nc1cccc(Sc2c(C)nc(N3CCNCC3)nc2C)c1 [YK146, N-(3-(4,6-dimethyl-2-(piperazin-1-yl)pyrimidin-5-ylthio)phenyl)propionamide]
